According to ChEMBL document CHEMBL3779783, “Short cationic lipopeptides as effective antibacterial agents: Design, physicochemical properties and biological evaluation” (Bioorg Med Chem, 2016):
Values after ≈ are worked out from the molar mass of the structure shown. Active and inactive are the calls of the source. The calls are words filed in the database; no cut-off is given here. Non-standard residues stand in square brackets, D forms with d. Residues, ends and D or L forms follow the SMILES beside them. Groups on a side chain read outwards from the residue. ξ: configuration not given here. ξGly(decyl) = CCCCCCCCCCC(N)C(=O)O

Assays:
Klebsiella pneumoniae [1] = experiment: Antimicrobial activity against NDM-1 positive Klebsiella pneumoniae BAA-2146 after 20 hrs by microdilution assay; assay type: functional; details: ATCC BAA-2146, 20 h
Staphylococcus aureus [2] = experiment: Antimicrobial activity against vancomycin-resistant Staphylococcus aureus NARSA VRS4 after 20 hrs by microdilution assay; assay type: functional; details: NARSA VRS4, 20 h
Enterococcus faecalis = experiment: Antimicrobial activity against clinical isolates of high level vancomycin-resistant Enterococcus faecalis after 20 hrs by microdilution assay; assay type: functional
Acinetobacter baumannii = experiment: Antimicrobial activity against Acinetobacter baumannii […] after 20 hrs by microdilution assay; assay type: functional
[3] = Cytotoxicity against HEK293 cells after 24 hrs by MTT assay; assay type: cell-based; details: human
[4] = Cytotoxicity against human HepG2 cells after 24 hrs by MTT assay; assay type: cell-based
Staphylococcus aureus [5] = experiment: Antimicrobial activity against clinical isolates of multi-resistant/methicillin-resistant Staphylococcus aureus after 20 hrs by microdilution assay; assay type: functional
Pseudomonas aeruginosa = experiment: Antimicrobial activity against Pseudomonas aeruginosa ATCC 27853 after 20 hrs by microdilution assay; assay type: functional; details: ATCC 27853, 20 h
Staphylococcus aureus [6] = experiment: Antimicrobial activity against methicillin-resistant Staphylococcus aureus ATCC 43300 after 20 hrs by microdilution assay; assay type: functional; details: ATCC 43300, 20 h
Klebsiella pneumoniae [7] = experiment: Antimicrobial activity against multidrug resistant Klebsiella pneumoniae ATCC 700603 after 20 hrs by microdilution assay; assay type: functional; details: Klebsiella pneumoniae, 700603, 20 h
Enterococcus faecium = experiment: Antimicrobial activity against multidrug resistant and high level vancomycin resistant Enterococcus faecium ATCC 51559 after 20 hrs by microdilution assay; assay type: functional; details: ATCC 51559, 20 h
Staphylococcus aureus [8] = experiment: Antimicrobial activity against clinical isolates of methicillin-resistant Staphylococcus aureus after 20 hrs by microdilution assay; assay type: functional
Staphylococcus aureus [9] = experiment: Antimicrobial activity against glycopeptide-intermediate Staphylococcus aureus NRS1 after 20 hrs by microdilution assay; assay type: functional; details: NRS1, 20 h
Staphylococcus aureus [10] = experiment: Antimicrobial activity against vancomycin-resistant Staphylococcus aureus NARSA VRS1 after 20 hrs by microdilution assay; assay type: functional; details: NARSA VRS1, 20 h
Staphylococcus aureus [11] = experiment: Antimicrobial activity against methicillin-susceptible Staphylococcus aureus ATCC 25923 after 20 hrs by microdilution assay; assay type: functional; details: ATCC 25923, 20 h
Staphylococcus aureus [12] = experiment: Antimicrobial activity against vancomycin-resistant Staphylococcus aureus NARSA VRS10 after 20 hrs by microdilution assay; assay type: functional; details: NARSA VRS10, 20 h
Staphylococcus aureus [13] = experiment: Antimicrobial activity against glycopeptide-intermediate Staphylococcus aureus NRS17 after 20 hrs by microdilution assay; assay type: functional; details: NRS17, 20 h
Escherichia coli = experiment: Antimicrobial activity against Escherichia coli ATCC 25922 after 20 hrs by microdilution assay; assay type: functional; details: ATCC 25922, 20 h
Klebsiella pneumoniae [14] = experiment: Antimicrobial activity against Klebsiella pneumoniae ATCC 13883 after 20 hrs by microdilution assay; assay type: functional; details: ATCC 13883, 20 h
Streptococcus pneumoniae = experiment: Antimicrobial activity against multidrug resistant Streptococcus pneumoniae ATCC 700677 after 20 hrs by microdilution assay; assay type: functional; details: ATCC 700677, 20 h
Staphylococcus aureus [15] = experiment: Antimicrobial activity against methicillin-susceptible Staphylococcus aureus ATCC 25923 assessed as surface blebs at 16 times MIC after 3 hrs by transmission electron microscopic analysis; assay type: functional, organism-based
Staphylococcus aureus [16] = experiment: Antimicrobial activity against methicillin-susceptible Staphylococcus aureus ATCC 25923 assessed as blister appearance on cell surface at 16 times MIC after 3 hrs by transmission electron microscopic analysis; assay type: functional, organism-based

SMILES	MIC (Klebsiella pneumoniae [1])	MIC (Staphylococcus aureus [2])	MIC (Enterococcus faecalis)	MIC (Acinetobacter baumannii)	CC50 at 24 h [3]	CC50 at 24 h [4]	MIC (Staphylococcus aureus [5])	MIC (Pseudomonas aeruginosa)	MIC (Staphylococcus aureus [6])	MIC (Klebsiella pneumoniae [7])	MIC (Enterococcus faecium)	MIC (Staphylococcus aureus [8])	MIC (Staphylococcus aureus [9])	MIC (Staphylococcus aureus [10])	MIC (Staphylococcus aureus [11])	MIC (Staphylococcus aureus [12])	MIC (Staphylococcus aureus [13])	MIC (Escherichia coli)	MIC (Klebsiella pneumoniae [14])	MIC (Streptococcus pneumoniae)	further results
CCCCCCCCCCC(NC(=O)C(CCCCNC(=O)C(CCCCN)NC(C)=O)NC(=O)C(CCCCN)NC(C)=O)C(N)=O (centres undefined)	> 30 µM	> 30 µM	30 µM (≈ 20.5 µg/mL)	> 30 µM	> 15 µM	> 15 µM	> 30 µM	> 30 µM	> 30 µM	> 30 µM	> 30 µM	> 30 µM	> 30 µM	> 30 µM	> 30 µM	> 30 µM	> 30 µM	> 30 µM	> 30 µM	> 30 µM	–
CCCCCCCCCCC(NC(=O)C(CCCCN)NC(C)=O)C(N)=O (centres undefined)	> 30 µM	> 30 µM	30 µM (≈ 11.5 µg/mL)	> 30 µM	> 15 µM	> 15 µM	> 30 µM	> 30 µM	> 30 µM	> 30 µM	> 30 µM	> 30 µM	> 30 µM	> 30 µM	> 30 µM	> 30 µM	> 30 µM	> 30 µM	> 30 µM	> 30 µM	–
CN[C@@H](CC(C)C)C(=O)N[C@H]1C(=O)N[C@@H](CC(N)=O)C(=O)N[C@H]2C(=O)N[C@H]3C(=O)N[C@H](C(=O)N[C@@H](C(=O)O)c4cc(O)cc(O)c4-c4cc3ccc4O)[C@H](O)c3ccc(c(Cl)c3)Oc3cc2cc(c3O[C@H]2O[C@@H](CO)[C@H](O)[C@@H](O)[C@@H]2O[C@@H]2C[C@@](C)(N)[C@@H](O)[C@@H](C)O2)Oc2ccc(cc2Cl)[C@H]1O	–	> 44 µM	> 44 µM	–	–	–	1 µM (≈ 1.45 µg/mL)	–	0.6 µM (≈ 0.87 µg/mL)	–	> 44 µM	5.5 µM (≈ 7.97 µg/mL)	1 µM (≈ 1.45 µg/mL)	> 44 µM	0.7 µM (≈ 1.01 µg/mL)	> 44 µM	2.8 µM (≈ 4.06 µg/mL)	–	–	0.7 µM (≈ 1.01 µg/mL)	Activity (Staphylococcus aureus [15]): Active; Activity (Staphylococcus aureus [16]): Active
CCCCCCCCCCC(NC(=O)C(CCCCCCCCCC)NC(=O)C(CCCCNC(=O)C(CCCCN)NC(C)=O)NC(=O)C(CCCCN)NC(C)=O)C(N)=O (centres undefined) (Ac-KK([Lys-Ac])[ξGly(decyl)][ξGly(decyl)]-NH2; configuration not given here)	> 30 µM	2.8 µM (≈ 2.46 µg/mL)	0.9 µM (≈ 0.792 µg/mL)	30 µM (≈ 26.4 µg/mL)	> 15 µM	> 15 µM	2.8 µM (≈ 2.46 µg/mL)	30 µM (≈ 26.4 µg/mL)	0.9 µM (≈ 0.792 µg/mL)	> 30 µM	0.9 µM (≈ 0.792 µg/mL)	5.6 µM (≈ 4.93 µg/mL)	7.5 µM (≈ 6.6 µg/mL)	1.9 µM (≈ 1.67 µg/mL)	3.75 µM (≈ 3.3 µg/mL)	1.9 µM (≈ 1.67 µg/mL)	7.5 µM (≈ 6.6 µg/mL)	> 30 µM	> 30 µM	2.8 µM (≈ 2.46 µg/mL)	–
